From PubChem BioAssay (NCI) come the findings set out here.

Where “and” joins values, the source holds several entries; their conditions need not be identical. Identical values can stand only once.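 Grown in 96-well plates, cells were treated for 48 hours with each compound at five concentrations. Insufficient inhibition: endpoint recorded as highest concentration tested. Abbreviation: GI50, concentration required for 50% inhibition of growth. TGI marks complete inhibition of growth.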

Common to all, as to experiment: growth of human tumour cells (NCI), 48 h
The test system of assay [1] is NCI-H522 lung.
The subject of assay [2] is RPMI-8226 leukemia.
For assay [3], the system named is MALME-3M melanoma.
In assay [4] the test system is SN12C renal.
The subject of assay [5] is SW-620 colon.
Assay [6] concerns SK-OV-3 ovarian.
In assay [7] the test system is A549 NSCLC.
Assay [8] deals with SK-MEL-5 melanoma.
The subject of assay [9] is HOP-92 NSCLC.
Assay [10] has as its system UO-31 renal.

Turning to `Cc1cc(C(=O)N[C@@H](CCC(=O)O)C(=O)O)sc1CC[C@@H]1CNc2nc(N)[nH]c(=O)c2C1`, the GI50 was 0.0322 µM in [1]; 0.0648 µM in assay [2]; 0.0398 µM in assay [3]; 0.0253 µM in [4]; 0.0101 µM in [5]; less than 0.0205 µM in [6]. The GI50 is 0.0436 µM in assay [7], 0.0679 µM in assay [8], 0.0592 µM in assay [9] and less than 0.01 µM in assay [10]. Besides, the TGI in [1], in assay [2], in [3], in assay [4], in assay [5] and in assay [6] was greater than 100 µM each time. The TGI in [7], in assay [8], in assay [9] and in assay [10] was greater than 100 µM throughout.
Consider `COc1ccccc1-c1ccc2nc(NC(=O)Nc3cc(C(F)(F)F)cc(C(F)(F)F)c3)sc2c1`, for which the GI50 was 1.76 µM in assay [1]; 1.63 µM in [2]; 1.81 µM in [3]; 1.7 µM in assay [4]; 3.04 µM in assay [5]; 2.92 µM in assay [6]. Also, the GI50 was 3.19 µM in assay [7], 1.57 µM in assay [8], 1.19 µM in assay [9] and 1.79 µM in assay [10]. Besides, the TGI stood at 9.35 µM in [1]; 5.76 µM in assay [2]; 4.29 µM in assay [3]; 3.36 µM in [4]; 11.2 µM in assay [5]; 11.4 µM in [6]. In addition, the TGI in assay [7] came to 11.8 µM; in assay [8], 2.98 µM; in assay [9] it was 4.31 µM; in [10], 4.07 µM.
In the case of `COc1ccc2c(O)c(/C=C3\N=Nc4ncccc43)oc2c1C[C@H]1CCNC[C@H]1F`, the GI50 was 0.206 µM in assay [1]; 0.286 µM in assay [2]; 1.61 µM in assay [3]; 0.442 µM in assay [4]; 0.291 µM in assay [5]; 1.57 µM in assay [6]. The GI50 in [7] was 1.74 µM; in assay [8], 0.942 µM; in [9], 2.39 µM; in assay [10], 0.146 µM. Besides, the TGI came to 2.23 µM in assay [1]; 1.06 µM in [2]; 5.15 µM in assay [3]; 10.6 µM in [4]; 2.22 µM in [5]; 9.05 µM in assay [6]. Further, the TGI was determined as 10.8 µM in [7], 10.6 µM in [8], 11.3 µM in assay [9] and 3.16 µM in assay [10].
As to `O=C1c2ccccc2C(=O)c2c(NC(=O)C(Cl)CCl)cccc21` (stereo not given), the TGI was determined as 7.13 µM in assay [1]; 2.11 µM in assay [2]; 47.2 µM in assay [3]; 21.4 µM in assay [4]; 14.7 µM in assay [5]; 39.1 µM in [6]. Moreover, the TGI in assay [7] is 47.6 µM; in assay [8] it was 28.1 µM; in assay [9], 9.82 µM; in assay [10] it was 24.1 µM.
Consider `CCc1nc(-n2c(CC)nc3ccccc3c2=O)nc(N)c1-c1ccc(Cl)cc1`, for which the GI50 in [1] is greater than 100 µM; in [2] it was 1.24 µM; in assay [3] it was greater than 80.1 µM; in [4] it was greater than 46.1 µM; in assay [5], 5.42 µM; in assay [6] it was greater than 100 µM. For the same compound, the GI50 in assay [7] was 2.38 µM; in assay [8] it was 6.84 µM; in [9], 18 µM; in assay [10] it was 23.7 µM. The TGI is greater than 100 µM in assay [1]; greater than 32 µM in assay [2]; greater than 100 µM in assay [3]; greater than 100 µM in [4]; greater than 100 µM in [5]; greater than 100 µM in assay [6]. The TGI was greater than 100 µM in assay [7], greater than 100 µM in [8], 99.9 µM in [9] and greater than 100 µM in assay [10].
In the case of `CSc1c(S(C)=O)[nH]c2cc(Br)cc(Br)c12` (stereo not given), the TGI is 55.5 µM in [1]; 57.7 µM in assay [2]; 48.8 µM in assay [3]; 33.9 µM in [4]; greater than 100 µM in [5]; 61.9 µM in assay [6]. In addition, the TGI in [7] stood at 78.9 µM; in assay [8], 38.1 µM; in [9], 32.1 µM; in assay [10] it was 48.7 µM.
Consider `CNS(=O)(=O)c1ccccc1C(=N)c1ccccc1`, for which the TGI in assay [1], in assay [2], in [3], in assay [4], in assay [5] and in assay [6] was greater than 100 µM throughout. In addition, the TGI in assay [7], in assay [8], in [9] and in assay [10] was greater than 100 µM throughout.
`COc1ccc(-c2ccc3ncc4c(c3c2)n(-c2ccc(N3CCNCC3)c(C(F)(F)F)c2)c(=O)n4C)cn1`: the GI50 is < 0.01 µM and 0.00669 µM in assay [1]; < 0.01 µM and 0.00374 µM in assay [2]; < 0.01 µM and 0.00404 µM in [3]; < 0.0112 µM and 0.00382 µM in assay [4]; 0.0103 µM and 0.0117 µM in [5]; < 0.01 µM and 0.006 µM in [6]. Besides, the GI50 in assay [7] was < 0.01 µM and 0.00607 µM; in [8], 0.0131 µM and 0.0102 µM; in assay [9], < 0.01 µM and 0.00146 µM; in assay [10] it was < 0.01 µM and 0.00417 µM. The TGI in assay [1] was 1.07 µM and 0.379 µM; in assay [2], 0.163 µM and 0.0549 µM; in assay [3], 0.03 µM and 0.0353 µM; in [4] it was 1.56 µM and 0.381 µM; in assay [5] it was 0.131 µM and 0.132 µM; in [6] it was 0.0183 µM and 0.0462 µM. In addition, the TGI in [7] was 0.153 µM and 0.329 µM; in [8], 0.0774 µM and 0.038 µM; in assay [9], 0.0219 µM and 0.0155 µM; in [10], 0.196 µM and 0.0269 µM.
`CCCCCCCCCCCCOC1C(CNCC2OC3OC(C)(C)OC3C2NC(=O)Nc2ccc(C(F)(F)F)cc2)OC2OC(C)(C)OC21` (stereo not given): the GI50 in assay [1] was 3.96 µM; in assay [2], 7.06 µM; in [3] it was 3.39 µM; in assay [4], 7.04 µM; in assay [5], 4.09 µM; in assay [6], 9.06 µM. The GI50 in assay [7] was 8.53 µM; in [8] it was 8.15 µM; in assay [9] it was 7.4 µM; in assay [10] it was 7.33 µM. Moreover, the TGI in [1] stood at 9.21 µM; in assay [2], 18.7 µM; in assay [3] it was 13.7 µM; in [4], 15.3 µM; in [5] it was 10.2 µM; in [6], 17.2 µM. Moreover, the TGI turned out to be 22 µM in [7], 15.1 µM in assay [8], 14.4 µM in [9] and 16.3 µM in [10].
On to `C[C@@H]1[C@H]2[C@H](C=C3[C@@H]4CC[C@H]5Cc6nc7c(nc6C[C@]5(C)[C@H]4C[C@@H](O)[C@@]32C)C[C@@H]2CC[C@H]3C4=C[C@@H]5O[C@@]6(CC[C@](C)(CO)O6)[C@@H](C)[C@@]5(O)[C@@]4(C)[C@H](O)C[C@@H]3[C@@]2(C)C7)O[C@]12CCC(C)(C)O2`, for which the GI50 in assay [1] is 2.26 µM; in assay [2], 0.0819 µM; in [3], 1.58 µM; in assay [4], 11.6 µM; in [5], 0.711 µM; in [6] it was 0.472 µM. Further, the GI50 is 0.809 µM in [7], 0.783 µM in [8], 0.716 µM in assay [9] and 0.275 µM in assay [10]. The TGI in assay [1] was 11.8 µM; in assay [2] it was 0.723 µM; in assay [3] it was 22.7 µM; in assay [4] it was greater than 70.3 µM; in assay [5], 7.92 µM; in assay [6], 5.29 µM. For the same compound, the TGI worked out at 14.6 µM in assay [7], 5.2 µM in assay [8], 13.3 µM in assay [9] and 1.54 µM in [10].
With `Fc1c[c-]c(-c2ccccn2)c(F)c1.[CH3-].[Pt+2].c1ccc([PH+](c2ccccc2)c2ccccn2)cc1`, the GI50 in assay [1] was 1.94 µM; in [2] it was 0.412 µM; in assay [3], 1.35 µM; in assay [4] it was 1.51 µM; in assay [5], 1.92 µM; in [6] it was 5.09 µM. For the same compound, the GI50 in assay [7] is 2.66 µM; in [8] it was 1.6 µM; in assay [9], 1.18 µM; in assay [10], 1.08 µM. Also, the TGI was 8.18 µM in assay [1]; 4.44 µM in assay [2]; 2.81 µM in assay [3]; 4.24 µM in assay [4]; 4.55 µM in assay [5]; greater than 100 µM in assay [6]. For the same compound, the TGI in assay [7] is greater than 100 µM; in assay [8], 3 µM; in assay [9] it was 2.68 µM; in [10], 2.28 µM.
As for `O=C(CCc1ccco1)NC1CCN(CC2(c3ccc(Cl)cc3)CCC2)CC1`, the GI50 in [1] was 14.6 µM; in assay [2], 13.2 µM; in assay [3], 13.8 µM; in [4] it was 15.4 µM; in assay [5], 15.5 µM; in assay [6] it was 16.9 µM. In addition, the GI50 in assay [7] was 14.6 µM; in assay [8], 15.2 µM; in assay [9], 4.69 µM; in [10], 7.37 µM. Also, the TGI in assay [1] was determined as 30 µM; in assay [2], 35 µM; in [3] it was 29.4 µM; in [4], 33.1 µM; in assay [5], 30.5 µM; in [6], 32.9 µM. The TGI in assay [7] was 32.5 µM; in assay [8], 28.7 µM; in [9], 20.3 µM; in assay [10], 21.3 µM.
As to `NC1=NN(c2ccccc2)C(=O)C1/C(=N\NC(=O)c1cc2ccccc2cc1O)C(=O)Nc1nc([N+](=O)[O-])cs1` (stereo not given), the TGI in [1] was 37.2 µM; in assay [2], 87.8 µM; in [3], greater than 100 µM; in [4], greater than 100 µM; in assay [5] it was greater than 82.3 µM; in assay [6] it was greater than 100 µM. For the same compound, the TGI in assay [7] was greater than 100 µM; in [8], 48.9 µM; in [9], 87.5 µM; in assay [10] it was 30.3 µM.
On to `OC(COc1cccc2ccccc12)CN1CCN(c2ccc(Cl)cc2)CC1` (stereo not given), for which the GI50 was 15.7 µM in [1]; 42.9 µM in assay [2]; 22.5 µM in [3]; 51 µM in assay [4]; 17.9 µM in [5]; 14.7 µM in assay [6]. For the same compound, the GI50 in [7] was 19.4 µM; in [8], 55.8 µM; in assay [9] it was 5.02 µM; in [10] it was 15.5 µM. Further, the TGI in [1] is 43.5 µM; in [2], greater than 100 µM; in assay [3], 64.7 µM; in assay [4], greater than 100 µM; in assay [5], greater than 100 µM; in assay [6], 45.2 µM. For the same compound, the TGI in assay [7] was greater than 100 µM; in assay [8], greater than 100 µM; in assay [9], 28 µM; in assay [10] it was 36.1 µM.
As to `[C-]#[O+].[C-]#[O+].[Ir].[O-]c1ccc2ccccc2c1N=Nc1ccccc1`, the TGI in [1] was 4.01 µM; in [2], 45.2 µM; in assay [3] it was 13 µM; in assay [4], 23.9 µM; in [5], 5.37 µM; in assay [6] it was greater than 68 µM. Further, the TGI in assay [7] turned out to be 70.1 µM; in [8], 28.7 µM; in [9], 32.4 µM; in assay [10], 24.4 µM.
Take `Clc1ccccc1-c1nc(-c2ccncc2)no1`: the TGI in assay [1], in assay [2], in assay [3], in assay [4], in [5] and in assay [6] was greater than 100 µM each time. In addition, the TGI is greater than 100 µM in assay [7], 56.4 µM in [8], greater than 100 µM in assay [9] and greater than 100 µM in assay [10].
